Reference: PubChem BioAssay AID248 (DTP/NCI, 2004)
Values joined by “and” are separate entries in the source; they are usually repeats but may differ in a detail not shown here. Identical values can stand only once. Inconclusive results and toxic doses are left out. No stated cut-off is given here; in the data, active means T/C of 150% or more; inactive means T/C below 125%.

Test system: L1210 leukemia ip in BDF1 mice, survival T/C
Experiment: NCI In Vivo Anticancer Drug Screen. Data for tumor model L1210 Leukemia (intraperitoneal) in B6D2F1 (BDF1) mice
Details: endpoint: mean survival time, higher = longer survival
In short: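 Transplanted-tumor mice were given test agent; controls received vehicle only. Survival readings from the two groups were divided (treated over control).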

[1] = dose: 50.0 mg/kg/injection, schedule: Q01DX009 (ip), vehicle: saline with Tween-80
[2] = dose: 100.0 mg/kg/injection, schedule: Q01DX009 (ip), vehicle: saline with Tween-80
[3] = dose: 200.0 mg/kg/injection, schedule: Q01DX009 (ip), vehicle: saline with Tween-80
[4] = dose: 100.0 mg/kg/injection, schedule: Q04DX003 (ip), vehicle: saline with Tween-80
[5] = dose: 200.0 mg/kg/injection, schedule: Q04DX003 (ip), vehicle: saline with Tween-80
[6] = dose: 100.0 mg/kg/injection, schedule: Q04DX003 (ip), vehicle: Klucel (hydroxypropylcellulose) (HPC)
[7] = dose: 200.0 mg/kg/injection, schedule: Q04DX003 (ip), vehicle: Klucel (hydroxypropylcellulose) (HPC)
[8] = dose: 400.0 mg/kg/injection, schedule: Q04DX003 (ip), vehicle: Klucel (hydroxypropylcellulose) (HPC)
[9] = dose: 50.0 mg/kg/injection, schedule: Q01DX009 (ip), vehicle: water
[10] = dose: 100.0 mg/kg/injection, schedule: Q01DX009 (ip), vehicle: water
[11] = dose: 200.0 mg/kg/injection, schedule: Q01DX009 (ip), vehicle: water
[12] = dose: 400.0 mg/kg/injection, schedule: Q01DX009 (ip), vehicle: saline with Tween-80
[13] = dose: 100.0 mg/kg/injection, schedule: Q01DX001 (ip), vehicle: saline with Tween-80

Measured: T/C

CN(N=O)C(=O)NCc1ccc(Cl)cc1
inactive: dose: 9.0 mg/kg/injection, schedule: Q01DX Z (ip), vehicle: carboxymethylcellulose (CMC) 108 % of control | dose: 18.0 mg/kg/injection, schedule: Q01DX Z (ip), vehicle: carboxymethylcellulose (CMC) 91 % of control | dose: 37.0 mg/kg/injection, schedule: Q01DX Z (ip), vehicle: carboxymethylcellulose (CMC) 101 % of control | dose: 75.0 mg/kg/injection, schedule: Q01DX Z (ip), vehicle: carboxymethylcellulose (CMC) 111 % of control | dose: 100.0 mg/kg/injection, schedule: Q01DX Z (ip), vehicle: carboxymethylcellulose (CMC) 109 % of control | dose: 150.0 mg/kg/injection, schedule: Q01DX Z (ip), vehicle: carboxymethylcellulose (CMC) 118 % of control | dose: 200.0 mg/kg/injection, schedule: Q01DX Z (ip), vehicle: carboxymethylcellulose (CMC) 119 % of control

COc1ccccc1/C=C/C(=O)N1CCC2(CC1)C(=O)N(C)CN2c1ccccc1
inactive: dose: 75.0 mg/kg/injection, schedule: Q04DX003 (ip), vehicle: Klucel (hydroxypropylcellulose) (HPC) 96 % of control | dose: 150.0 mg/kg/injection, schedule: Q04DX003 (ip), vehicle: Klucel (hydroxypropylcellulose) (HPC) 86 % of control | dose: 300.0 mg/kg/injection, schedule: Q04DX003 (ip), vehicle: Klucel (hydroxypropylcellulose) (HPC) 91 % of control

O=C(O)/C(=C(/Cc1ccccc1)C(=O)c1ccccc1)c1ccccc1
inactive: [1] 98 % of control | [2] 88 % of control | [3] 91 % of control

C=CCOc1ccccc1OC
inactive: [1] 96 % of control | [2] 100 % of control | [4] 103 % of control | [3] 95 % of control | [5] 112 % of control

CN(C)C(=O)Nc1cccc(OP(=O)(Oc2ccccc2)Oc2ccccc2)c1
inactive: [6] 91 % of control | [7] 94 % of control | [8] 98 % of control

COc1cccc2c(=O)cc(C)[nH]c12
inactive: [9] 104 % of control | [10] 102 % of control | dose: 100.0 mg/kg/injection, schedule: Q04DX003 (ip), vehicle: water 101 % of control | [11] 109 % of control | dose: 200.0 mg/kg/injection, schedule: Q04DX003 (ip), vehicle: water 96 % of control | dose: 400.0 mg/kg/injection, schedule: Q01DX009 (ip), vehicle: water 105 % of control | dose: 400.0 mg/kg/injection, schedule: Q04DX003 (ip), vehicle: water 108 % of control

COCC(=O)OCCCCCOC(=O)COC
inactive: dose: 50.0 mg/kg/injection, schedule: Q04DX003 (ip), vehicle: Klucel (hydroxypropylcellulose) (HPC) 104 % of control | [6] 102 % of control | [7] 96 % of control | [8] 88 % of control

Nc1ccc(I)c(Cl)c1Cl
inactive: [2] 110 % of control | [3] 108 % of control | [12] 102 % of control

O=C1C=C(c2ccccc2)CO1
inactive: dose: 100.0 mg/kg/injection, schedule: Q01DX001 (ip), vehicle: saline 104 % of control | dose: 200.0 mg/kg/injection, schedule: Q01DX001 (ip), vehicle: saline 122 % of control | dose: 400.0 mg/kg/injection, schedule: Q01DX001 (ip), vehicle: saline 98 % of control

CC/C(C)=N/C(=O)NN
inactive: [13] 103 % of control

CCN(CC)CCNc1ccc(CO)c2oc3ccccc3c(=O)c12
inactive: dose: 50.0 mg/kg/injection, schedule: Q01DX009 (ip), vehicle: saline 99 % of control | dose: 100.0 mg/kg/injection, schedule: Q01DX009 (ip), vehicle: saline 96 % of control | dose: 200.0 mg/kg/injection, schedule: Q01DX009 (ip), vehicle: saline 99 % of control

CCCCCCCCCCCCCCCCOc1ccc(F)cc1
inactive: dose: 100.0 mg/kg/injection, schedule: Q04DX002 (ip), vehicle: Klucel (hydroxypropylcellulose) (HPC) 103 % of control | dose: 200.0 mg/kg/injection, schedule: Q04DX002 (ip), vehicle: Klucel (hydroxypropylcellulose) (HPC) 118 % of control | dose: 400.0 mg/kg/injection, schedule: Q04DX002 (ip), vehicle: Klucel (hydroxypropylcellulose) (HPC) 107 % of control

Cc1cccc(NC(=O)CSc2ccc(Cl)cc2)c1
inactive: dose: 100.0 mg/kg/injection, schedule: Q04DX002 (sc), vehicle: olive oil, sesame oil, peanut oil 100 % of control | dose: 200.0 mg/kg/injection, schedule: Q04DX002 (sc), vehicle: olive oil, sesame oil, peanut oil 106 % of control | dose: 400.0 mg/kg/injection, schedule: Q04DX002 (sc), vehicle: olive oil, sesame oil, peanut oil 89 % of control

CC(C)COC(CN)C(Cl)(Cl)Cl (centres undefined)
inactive: dose: 50.0 mg/kg/injection, schedule: Q01DX001 (ip), vehicle: saline with Tween-80 104 % of control | [1] 94 % of control and 110 % of control | dose: 50.0 mg/kg/injection, schedule: Q04DX003 (ip), vehicle: saline with Tween-80 100 % of control | [13] 103 % of control | [2] 97 % of control and 92 % of control | dose: 100.0 mg/kg/injection, schedule: Q04DX002 (ip), vehicle: saline with Tween-80 103 % of control and 104 % of control | [4] 95 % of control | dose: 200.0 mg/kg/injection, schedule: Q01DX001 (ip), vehicle: saline with Tween-80 97 % of control | [3] 93 % of control and 99 % of control | dose: 200.0 mg/kg/injection, schedule: Q04DX002 (ip), vehicle: saline with Tween-80 95 % of control and 101 % of control | [5] 92 % of control

CCc1cc(C)cc(OC(=O)Nc2ccccc2)c1
inactive: [2] 87 % of control | [4] 93 % of control | [3] 88 % of control | [5] 93 % of control | [12] 92 % of control

CCOC(=O)Nc1cncc(NC(=O)OCC)n1
inactive: dose: 6.25 mg/kg/injection, schedule: Q01DX009 (ip), vehicle: water 96 % of control | dose: 12.5 mg/kg/injection, schedule: Q01DX009 (ip), vehicle: water 90 % of control | dose: 25.0 mg/kg/injection, schedule: Q01DX009 (ip), vehicle: water 117 % of control and 91 % of control | [9] 93 % of control and 91 % of control | [10] 96 % of control and 101 % of control | [11] 111 % of control

C/C=C/CC1(CCC)C(=O)NC(=O)NC1=O
inactive: dose: 75.0 mg/kg/injection, schedule: Q01DX001 (ip), vehicle: saline 100 % of control | dose: 150.0 mg/kg/injection, schedule: Q01DX001 (ip), vehicle: saline 98 % of control | dose: 300.0 mg/kg/injection, schedule: Q01DX001 (ip), vehicle: saline 104 % of control

CCCCNC(=S)N(CCCC)CCCC
inactive: dose: 100.0 mg/kg/injection, schedule: Q04DX003 (ip), vehicle: saline 96 % of control | dose: 200.0 mg/kg/injection, schedule: Q04DX003 (ip), vehicle: saline 103 % of control | dose: 400.0 mg/kg/injection, schedule: Q04DX003 (ip), vehicle: saline 96 % of control

CCOC(=O)C(C(C)=O)C(c1ccc2c(c1)OCO2)C(C(C)=O)C(=O)O (centres undefined)
inactive: dose: 25.6 mg/kg/injection, schedule: Q04DX002 (ip), vehicle: saline with Tween-80 100 % of control | dose: 64.0 mg/kg/injection, schedule: Q04DX002 (ip), vehicle: saline with Tween-80 96 % of control | dose: 160.0 mg/kg/injection, schedule: Q04DX002 (ip), vehicle: saline with Tween-80 103 % of control | dose: 400.0 mg/kg/injection, schedule: Q04DX002 (ip), vehicle: saline with Tween-80 107 % of control

CC/C(=C(\CC)c1ccc(OCC(=O)N2CC2)cc1)c1ccc(OCC(=O)N2CC2)cc1
inactive: dose: 2.5 mg/kg/injection, schedule: Q04DX002 (ip), vehicle: saline 101 % of control | dose: 5.0 mg/kg/injection, schedule: Q04DX002 (ip), vehicle: saline 101 % of control | dose: 10.0 mg/kg/injection, schedule: Q04DX002 (ip), vehicle: saline 105 % of control

CC(C)CCC(C)C1CCC2C3CC([N+](=O)[O-])=C4CC(OC(=O)c5ccccc5)CCC4(C)C3CCC12C (centres undefined)
inactive: [2] 103 % of control | [3] 90 % of control | [12] 90 % of control

O=c1[nH]c2sccc2c(=O)n1OS(=O)(=O)c1ccccc1
inactive: dose: 100.0 mg/kg/injection, schedule: Q01DX009 (ip), vehicle: Klucel (hydroxypropylcellulose) (HPC) 105 % of control | dose: 200.0 mg/kg/injection, schedule: Q01DX009 (ip), vehicle: Klucel (hydroxypropylcellulose) (HPC) 122 % of control | dose: 400.0 mg/kg/injection, schedule: Q01DX009 (ip), vehicle: Klucel (hydroxypropylcellulose) (HPC) 93 % of control
